As a reminder, the IC50 is the point on the concentration scale where inhibition reaches its midpoint.

The values below come from patent US20260285834A1, “SUBSTITUTED PYRIDINE DERIVATIVES AS SARM1 INHIBITORS” (Nura Bio, Inc., priority 2022, published 2026).

Counter-ions that a name gives are not always drawn. A value given as a limit tells only on which side of the number the result lay.

The assay deals with T1, human SARM1(50-724) (Homo sapiens, UniProt Q6SZW1).
T1 construct: 40 nM human SARM1(50-724)
T1 sequence (Q6SZW1 50-724): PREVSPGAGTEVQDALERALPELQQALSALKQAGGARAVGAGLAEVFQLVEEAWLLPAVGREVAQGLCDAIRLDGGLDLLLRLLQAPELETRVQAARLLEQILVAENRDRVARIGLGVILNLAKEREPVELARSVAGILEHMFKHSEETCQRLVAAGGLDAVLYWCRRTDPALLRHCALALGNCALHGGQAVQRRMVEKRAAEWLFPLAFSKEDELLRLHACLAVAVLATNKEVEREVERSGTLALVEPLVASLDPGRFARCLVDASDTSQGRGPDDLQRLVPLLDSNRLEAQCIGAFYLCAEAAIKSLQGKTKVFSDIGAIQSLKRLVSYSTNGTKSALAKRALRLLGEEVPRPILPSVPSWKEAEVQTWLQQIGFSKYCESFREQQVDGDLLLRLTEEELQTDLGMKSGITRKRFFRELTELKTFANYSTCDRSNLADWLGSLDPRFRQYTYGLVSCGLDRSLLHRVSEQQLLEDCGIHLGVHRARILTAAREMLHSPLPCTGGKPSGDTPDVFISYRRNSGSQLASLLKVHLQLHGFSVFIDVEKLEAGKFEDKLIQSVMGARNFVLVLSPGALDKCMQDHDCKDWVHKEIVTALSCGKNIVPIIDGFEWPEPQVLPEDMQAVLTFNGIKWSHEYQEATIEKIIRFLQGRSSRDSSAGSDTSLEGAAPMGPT
Description: SARM1 biological assay: HPLC measurement of NAD and NAM peak areas. The assay is classed as biochemical. Here is the method:
Each reaction was run at a volume of 20 μL containing 50 μM compound (dissolved in DMSO; final concentration of DMSO is 1% v/v), 40 nM human SARM1(50-724), 0.3 mM NMN, 20 μM NAD, 1 mM TCEP, 25 mM HEPES pH 7.4, 10 mM KCl and 10 mM MgCl2. The reaction was incubated at room temperature for 60 minutes and quenched with 20 μL of 0.4% formic acid. The samples were run on Agilent HPLC 1260 Infinity II with Synergi 2.5 μM Fusion-RP 100 Å (100×3.0 mm) LC column from Phenomenex. Total run time for each sample was 4 minutes. The run was isocratic with 1.5% methanol in 40 mM ammonium acetate pH 6.0. Samples were run at a flow rate of 0.8 mL/min at 55° C. Peak areas of NAD and NAM were determined using OpenLAB CDS (Chem Station edition) software. For dose-response, the compound was diluted serially 1:3 in DMSO and added to the reaction starting at a final compound concentration of 100 μM in 1% DMSO.
Take `F[C@]1(Cl)C[C@@H]1c1nc(Cc2ccncc2)c[nH]1` (single isomer, unassigned) [Example 39B]: the 50% inhibitory concentration (IC50) is less than 1000 nM.
In the case of `FC1(F)C[C@@H]1Cc1nc(Cc2ccncc2)c[nH]1` (single isomer, unassigned) [Example 21A] it was less than 1000 nM.
Consider `C[C@@H](c1ccncc1)c1c[nH]c(C(=O)C(F)(F)F)n1` (single isomer, unassigned) [Example 23B, hydrochloride], for which the IC50 lay within 1000 to 10000 nM.
In the case of `FC1(F)CNC(c2nc(Cc3ccncc3)c[nH]2)C1` (stereo not drawn) [Example 32, 4-((2-(4,4-Difluoropyrrolidin-2-yl)-1H-imidazol-4-yl)methyl)pyridine] it was 1000 to 10000 nM; in that of `FC(F)(F)C1CC1c1nc(Cc2ccncc2)c[nH]1` (stereo not drawn) [Example 26, 4-((2-(2-(Trifluoromethyl)cyclopropyl)-1H-imidazol-4-yl)methyl)pyridine], 1000 to 10000 nM.
In the case of `ClC1(Cl)CC1c1nc(Cc2ccncc2)c[nH]1` (stereo not drawn) [Example 6, 4-((2-(2,2-Dichlorocyclopropyl)-1H-imidazol-4-yl)methyl)pyridine] it was less than 1000 nM; in that of `ClC1(Cl)C[C@@H]1c1nc(Cc2ccncc2)c[nH]1` (single isomer, unassigned) [Example 33A], less than 1000 nM.
As for `ClC1(Cl)CC(c2nc(Cc3ccncc3)co2)C1` [Example 19B, 2-(3,3-Dichlorocyclobutyl)-4-(pyridine-4-ylmethyl)oxazole], the IC50 was 1000 to 10000 nM.
In the case of `FC(F)(F)C1(Cc2nc(Cc3ccncc3)c[nH]2)CC1` [Example 25] it was less than 1000 nM; in that of `Fc1cnccc1Cc1c[nH]c(C2CC2(F)F)n1` (stereo not drawn) [Example 14, 4-((2-(2,2-Difluorocyclopropyl)-1H-imidazol-4-yl)methyl)-3-fluoropyridine], less than 1000 nM.
Next, `FC1(F)CCN(c2nc(Cc3ccncc3)c[nH]2)CC1` [Example 1]: 1000 to 10000 nM; `F[C@]1(Cl)C[C@H]1c1nc(Cc2ccncc2)c[nH]1` (single isomer, unassigned) [Example 39D]: less than 1000 nM; `FC1(F)CC(c2nc(Cc3ccncc3)co2)C1` [Example 15B, 2-(3,3-Difluorocyclobutyl)-4-(pyridin-4-ylmethyl)oxazole]: 10000 to 100000 nM.
With `FC1(F)CC(c2nc(Cc3ccncc3)c[nH]2)C1` [Example 15A, 4-((2-(3,3-Difluorocyclobutyl)-1H-imidazol-4-yl)methyl)pyridine], the IC50 was less than 1000 nM.
Next, `C[C@]1(c2nc(Cc3ccncc3)c[nH]2)CC1(F)F` (single isomer, unassigned) [Example 10A]: less than 1000 nM.
